# Entries after “also recorded” stand apart in the source; their conditions may differ.
# Tested on: PRMT5 substrates
# Assay: Arginine symmetric dimethylation (SDMA Western blot) in MCF-7 cells
# Assay type: cell-based
# Description: MCF-7 cells, HEK293T cells and HeLa cells were cultured in Dulbecco's Modified Eagle Medium (DMEM) supplemented with 10% fetal bovine serum (FBS) in 5% CO2 at 37° C. Jurkat cells were cultured in RPMI 1640 medium supplemented with 10% FBS in 5% CO2 at 37° C. H2171 cells were cultured in HITES medium supplemented with 10% FBS in 5% CO2 at 37° C. HCT116 were cultured in McCoy's 5A medium supplemented with 10% fetal bovine serum (FBS) in 5% CO2 at 37° C. All the cells lines were treated with 5 μM (or indicated concentration) of PRMT5 inhibitor (EPZ015666) or degraders, or equivalent volume of DMSO for 6 days (or indicated time points). Fresh compounds were constituted in medium and used for every 2 days. The antibodies used in this study are: PRMT5 antibody (Active Motif), (3-actin antibody (Sigma), SDMA antibody (collaboration with Cell Signaling Technologies). Cell cultures were harvested at the end of compound treatments and applied subjected to western blotting assay. Briefly, cells were washed with PBS and lysed with RIPA lysis buffer for 20 minutes on ice. Then lysates were centrifuged and the clear supernatant were collected. SDS loading buffer was added to the lysates and then the mixture was boiled at 100° C. for 5 minutes. Samples were loaded to 10% or 12% SDS-PAGE gel and ran at 120V for 1.5 hours. Then the proteins were transferred to PVDF membrane and blocked in 5% milk fat at room temperature for 1 hour. Then the membranes were incubated with indicated antibodies at 4° C. overnight. Membranes were washed with PBST buffer three times for 10 minutes each time and incubated with HRP-conjugated (horse radish peroxidase) secondary antibodies at room temperature for 1 hour. Again the membranes were washed with PBST buffer three times for 10 minutes each time. Finally, the indicated proteins on the membranes were visualized with ECL (enhanced chemiluminescence) reagents. MCF-7 cells were treated with EPZ015666 or YS43-22 at indicated compound concentrations (μM) for 6 days.
structure (smiles),measurement,setting,value
"Cc1ncsc1-c1ccc([C@H](C)NC(=O)[C@@H]2C[C@@H](O)CN2C(=O)[C@@H](NC(=O)COCCOCCOCCOCCOCC(=O)N2CC(Nc3cc(C(=O)NC[C@H](O)CN4CCc5ccccc5C4)ncn3)C2)C(C)(C)C)cc1 [YS43-22, N-((S)-3-(3,4-dihydroisoquinolin-2(1H)-yl)-2-hydroxypropyl)-6-((1-((S)-19-((2S,4R)-4-hydroxy-2-(((S)-1-(4-(4-methylthiazol-5-yl)phenyl)ethyl)carbamoyl)pyrrolidine-1-carbonyl)-20,20-dimethyl-17-oxo-3,6,9,12,15-pentaoxa-18-azahenicosanoyl)azetidin-3-yl)amino)pyrimidine-4-carboxamide]",suppressing PRMT5 activity,MCF-7 cells (Examples 90-92),especially effective
same,inhibition of arginine symmetric dimethylation,"MCF-7 cells, indicated concentrations (μM), 6 days",significantly inhibited; also recorded: significant inhibition

# From patent publication US20210261538A1, “PROTEIN ARGININE METHYLTRANSFERASE 5 (PRMT5) DEGRADATION / DISRUPTION COMPOUNDS AND METHODS OF USE” (ICAHN SCHOOL OF MEDICINE AT MOUNT SINAI, priority 2018, published 2021)
